Reference: paper PMC10054428, “Turning a Tumor Microenvironment Pitfall into Opportunity: Discovery of Benzamidoxime as PD-L1 Ligand with pH-Dependent Potency” (International Journal of Molecular Sciences, 2023)
“Also recorded” adds a separate entry of the source. Like-named read-outs stand apart in the source and are kept apart here.

Experiments:
[1] = biological target: T1, NT650/PD-L1 (recombinant human PD-L1) (Homo sapiens, UniProt Q9NZQ7); assay: Single-point MST binding assay; details: 250 µM compound; for Single-point binding result (in words): NT650/PD-L1; for Binder (single-point binder flag): 50 nM NT650/PD-L1, pH 7.2, F-norm outside vehicle ± 3 SD
T1 construct: purchased Abcam ab167713
Description: Putative hit compounds were defined as those molecules inducing a thermophoretic movement of the ligand-bound complex with a fluorescent signal (F-norm) outside the signal value and three-fold standard deviations of the negative control (vehicle, DMSO).
(§1) Biophysical Binding Assays. A lyophilized form of the recombinant human PD-L1 protein was purchased from Abcam (ab167713, Abcam, Cambridge, UK) and reconstituted by adding sterile deionized water to reach a theoretical concentration of 400 µg/mL in PBS (PBS7.2: 50 mM KH2PO4, 0.05% Tween 20, pH 7.2). […] Then, the protein was labeled with a fluorescent dye using the Protein Labelling Kit RED-NHS (NT650, NanoTemper Technologies GmbH, Munich, Germany) and a 1:4 ratio (protein:dye). […] The unbounded fluorophore was removed by a size-exclusion chromatography column using a PBS7.2 storage buffer (pH 7.2). The removal of the unbounded fluorophore was also repeated by conditioning the size-exclusion chromatography column with a phosphate buffer at pH 6.2 (PBS6.2: 50 mM KH2PO4, 0.05% Tween 20, pH 6.2).
(§2) Ligand binding experiments were performed using MST (Monolith NT.115; NanoTemper Technologies GmbH, Munich, Germany). This method is based on the principle of thermophoresis, which is the movement of a biomolecular complex in a temperature gradient depending on the size, charge, and hydration shell that typically change upon ligand/target interaction. The selected 10 highly soluble fragments were purchased from Life Chemicals. […] A vehicle of DMSO 2% was used as negative control.
Single-point binding assays were carried out, recording the MST signal for each capillary at medium laser power and 40% LED power, choosing the manual mode with a 19/20 s hot region. Each experiment was repeated three times employing premium-coated capillaries.

[2] = biological target: T1, NT650/PD-L1 (recombinant human PD-L1); assay: Full-point MST binding assay (Kd) at pH 7.2 and 6.2; details: for BEI (pH 6.2) / BEI: BEI = pKd/MW (kDa); for BEI: pH 7.2; for delta increment of BEI: pH 6.2 versus pH 7.2
Description: These compounds were next tested in full ligand binding assays against NT650/PD-L1 at pH 7.2, using the scalar concentration of each compound to obtain binding curves and the relative dissociation constants (Kd).
as §1, §2
Each compound was tested starting the 1:1 dilution from a 1 mM concentration in MST buffer (PBS7.2 and PBS6.2) with 2% DMSO. An amount of 10 µL solution of 100 nM NT650/PD-L1 was added to each compound dilution and mixed to halve the final concentration of each component, including 2% DMSO, and reach a reaction volume of 20 µL. After incubating the mixtures for 30 min, samples were loaded into 16 premium-coated capillary tubes for MST analysis. MST signals were recorded for each capillary at medium laser power and 40% LED power, choosing the manual mode with 19/20s hot region.
The Binding Efficiency Index (BEI) was calculated using the following equation [Equation (1)] [43]:BEI = pKd/MW (kDa)(1)
(§3) In all binding experiments and ligand binding displacement assays, raw data were analyzed using MO.Affinity analysis software v2.3 (NanoTemper Technologies GmbH, Munich, Germany). Kd values were extrapolated by compound concentration-dependent changes of the NT650/PD-L1 F-norm signals using MO.Affinity analysis software v2.3.
(§4) MST experiments were carried out using a Monolith NT.115 instrument (NanoTemper Technologies GmbH, Munich, Germany).

[3] = pKa by potentiometric titration (SiriusT3); type: physicochemical; details: 25 °C, n.3
Description: The first value (pKa1) corresponds to the deprotonated state of the protonated oxime nitrogen atom, entailing the neutral form. The second value (pKa2) is associated to the deprotonation of the oxime hydroxyl group, providing the anionic form of the compound. The presence of electron-withdrawing and/or -donating groups on the benzene ring may affect these values, entailing different stabilities of the cationic, neutral, and anionic species at a given pH. Accordingly, we used a potentiometric titration method to determine the pKa values of VIS310 and its analogues (9, 16–20).
Table 3 reports the experimental pKa values of BMS-202 (5), VIS310 (9), and its analogues (16–20), as obtained using SiriusT3 instrument. […] Therefore, the very high pKa value corresponding to the deprotonation of the oxime hydroxyl group was not experimentally determined in the compounds. Conversely, one or two pKa values were obtained, depending on the presence of a phenol moiety in the benzamidoxime derivatives. […] This is more evident with the insertion of the para hydroxyl group in the compounds VIS1201 (17; pKa1 = 5.35), VIS1202 (18; pKa1 = 5.38), VIS1203 (19; pKa1 = 5.38), and VIS310 (9; pKa1 = 5.65). These latter compounds show also a second value of the acid dissociation constant (pKa2) that corresponds to the deprotonated state of the phenolic group, entailing the anionic form of the compound. […] At pH 7.2, the microspecies adopting a neutral form increases, whereas the cationic form decreases, and a minor part of the microspecies starts adopting an anionic form (Figures S2 and S3, supplementary material).
Physicochemical Property Evaluations. Acidic constants (calcpKa) of compounds were calculated using the calculator plugin Marvin (v20.11, 2021; ChemAxon, Budapest, Hungary).
Each experiment was performed by specifying the sample weight, number of expected pKa values, calculated pKa (calcpKa) values, titration mode, and number of titrations (n.3). In order to measure the pKa of a compound, a sample concentration of 1 mM was prepared and dissolved, adding methanol as the co-solvent. […] Titrations of compounds 16–20 were performed using a ratio of 45%, 40%, 35% methanol. The Yasuda–Shedlovsky method was chosen to extrapolate aqueous pKa values. The R^2 value was used to evaluate the validity of the assay with a co-solvent, and the results were considered acceptable with a R^2 value ≥ 0.9 (Table S3, supplementary material). The accuracy of the pKa assay was also evaluated using the buffer index profile of the analyte. Specifically, the buffering capacity signal of the analyte must be above the intrinsic buffering capacity of water in order to have an accurate potentiometric measurement. Results were analyzed using Sirius T3 software v1.1.3.

[4] = design: method as in PMID 25621618; details: UV/vis titration, cited from earlier work
PD-1/PD-L1 complex = biological target: T2, PD-1/PD-L1 complex (Homo sapiens, UniProt Q9NZQ7); assay: Ligand binding displacement assay of PD-1/PD-L1 complex (MST); details: pH 6.2, 50 and 100 μM
T2 construct: purchased Abcam ab167713 (PD-L1)
Description: This study was carried out with MST.
Ligand binding displacement assays were carried out with MST. […] The reconstitution of the protein was done by adding sterile deionized water to achieve a final concentration of 1 mg/mL in PBS7.2. […] The protein was tested starting the 1:1 dilution from a 26 μM concentration in MST buffer (PBS6.2) with 2% DMSO. […] After incubating the mixtures for 40 min in the dark, samples were loaded into 16 premium-coated capillary tubes for MST analysis. MST signals were recorded for each capillary at medium laser power and 80% LED power, choosing the Default on Time (DoT) mode with 4/5s hot region.
as §3, §4

[5] = pH 6.2, n.3, read-out: Kd ± c.v.
[6] = pH 7.2, n.3, read-out: Kd ± c.v.
[7] = oxime nitrogen atom, methanol co-solvent, Yasuda–Shedlovsky extrapolation, read-out: pKa1
[8] = phenolic group (9, 17–19), secondary amine group (5), read-out: pKa2

T1 sequence (Q9NZQ7 19-290): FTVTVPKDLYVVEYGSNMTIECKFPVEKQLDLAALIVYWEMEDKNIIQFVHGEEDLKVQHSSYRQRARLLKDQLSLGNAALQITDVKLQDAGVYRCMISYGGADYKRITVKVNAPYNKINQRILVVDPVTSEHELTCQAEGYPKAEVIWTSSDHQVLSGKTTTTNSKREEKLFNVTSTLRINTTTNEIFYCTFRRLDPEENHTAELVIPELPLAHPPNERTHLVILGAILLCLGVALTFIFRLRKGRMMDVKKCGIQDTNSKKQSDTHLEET
T2 sequence (Q9NZQ7 19-238 limits assumed, one chain of several): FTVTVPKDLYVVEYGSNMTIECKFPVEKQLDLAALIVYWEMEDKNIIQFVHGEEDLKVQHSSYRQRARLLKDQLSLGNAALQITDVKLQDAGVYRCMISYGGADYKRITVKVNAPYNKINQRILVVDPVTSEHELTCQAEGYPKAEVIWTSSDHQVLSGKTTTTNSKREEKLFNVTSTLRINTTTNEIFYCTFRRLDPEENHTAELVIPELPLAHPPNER

Kd [2, 5]	BEI (pH 6.2) [2]	Kd [2, 6]	pKa [3, 7]	SMILES	Single-point binding result (in words) [1]	also measured
70.8 ± 12.7 µM	19.6	148 ± 71.3 µM	5.3 ± 0.01	N=C(NO)c1ccccc1-c1ccccc1 [VIS1204]		delta increment of BEI [2]: +1.5; BEI [2]: 18.1
54.9 ± 8.2 µM	25.7	> 1000 µM	5.38 ± 0.01	Cc1cc(O)ccc1C(=N)NO [VIS1203]		pKa [3, 8]: 9.17 ± 0.02
95.6 ± 20.6 µM	24.5	> 1000 µM	5.26 ± 0.01	Cc1cc(C)cc(C(=N)NO)c1 [VIS1200]		
55.4 ± 9.86 µM	25.6	> 1000 µM	5.38 ± 0.01	Cc1cc(C(=N)NO)ccc1O [VIS1202]		pKa [3, 8]: 8.97 ± 0.03
45.2 ± 10.6 µM	28.6	> 1000 µM	5.35 ± 0.12	N=C(NO)c1ccc(O)cc1 [VIS1201]		delta increment of BEI [2]: +8.9; BEI [2]: 19.7; Inhibition of PD-1/PD-L1 interaction (in words) (PD-1/PD-L1 complex): dose-dependently inhibits the PD-1/PD-L1 interaction; also recorded: dose-dependently inhibit the formation of the PD-1/PD-L1 complex; pKa [3, 8]: 8.64 ± 0.01

Further lines, the compound ahead of its results:

SMILES	Kd [2, 5]	BEI (pH 6.2) [2]	Kd [2, 6]	pKa [3, 7]	Single-point binding result (in words) [1]	also measured
Cc1cc(/C(N)=N/O)cc(C)c1O [VIS310]	47.8 µM	24.0	164 µM	5.65 ± 0.01	hit compounds	BEI [2]: 21.0; pKa [3, 8]: 9.32 ± 0.02
O=C(O)c1cccc2c1-c1ccccc1OC2 [VIS877]			> 250 µM			
C[C@]1(O)CC[C@@H]1N1CC2CCCCC2C1 (some centres unmarked) [VIS1079]					at the borderline of the definition criterion	Binder (single-point binder flag) [1]: x/o; Kd ([2]; Kd ± c.v., pH 7.2, n.3): > 250 µM
NC(=NO)c1ccccc1 [benzamidoxime]						pKa2 ([4]; oxime hydroxyl group): 12.36; pKa1 ([4]; protonated oxime nitrogen): 4.85
[H]/N=C1\NC(=O)[C@H](CC(=O)Nc2cccc3ccccc23)S1 [VIS303]			> 250 µM		hit compounds	
NCc1n[nH]c(=O)c2ccccc12 [VIS285]			> 250 µM		at the borderline of the definition criterion	Binder (single-point binder flag) [1]: x/o
COC(=O)c1ccc(C)c2c1-c1ccccc1OC2 [VIS879]			> 250 µM			
NCCSc1c[nH]c2ccccc12 [VIS284]			> 250 µM		hit compounds	
Nc1[nH]ncc1-c1ccc(F)cc1F [VIS32926]			> 250 µM		at the borderline of the definition criterion	Binder (single-point binder flag) [1]: x/o
O=C(NCc1ccc(F)cc1)c1ccc2nc[nH]c2c1 [VIS545]			> 250 µM		at the borderline of the definition criterion	Binder (single-point binder flag) [1]: x/o
Cc1ccc(Cn2c(S)nc3c2c(=O)n(C)c(=O)n3C)cc1 [VIS826]			> 250 µM			
